Data on ten compounds can be found in patent US5709816A, “Singlet oxygen quenchers and external compositions containing the same” (Kao Corporation, priority 1899, dated 1998).

For experiment [1], the system named is cultured human fibroblasts. The experiment can be described thus: Inhibition of lipid peroxide formation in cultured human fibroblasts (TBA method). The conditions noted are these: Homo sapiens, Fibroblast, light or radiation study, 0.01 wt. % in ethanol, 100 mM porphyrin, UV-A/UV-B 1 J/cm^2, read-out: Inhibition ratio regarding lipid peroxide formation. In kind it is cell-based. How it is done: Inhibition of lipid peroxide formation
Cultured human fibroblasts were combined with 100 mM porphyrin and a test substance (0.01 wt. %, in ethanol). A mixture of UV-A/UV-B rays (1 J/cm^2, measurements performed at 365 nm) was irradiated onto the resultant cell culture using a solar simulator. The fibroblasts were collected after the trypsin treatment, then extracted hydrophobic substances using acetone. The extracted substances were dried under nitrogen to prepare cellular lipid samples. A TBA method was used to measure lipid peroxides in cells and inhibition ratio by a test substance.

Experiment [2] relates to E. coli vector pUC119 DNA. In kind it is biochemical. The conditions noted are these: 0.01 wt. % in ethanol; 100 mM porphyrin; UV-A/UV-B 3 J/cm^2; agarose gel electrophoresis. How it is done:
To a mixture of […] E. coli vector pUC119 DNA and 100 mM porphyrin, an ethanol solution containing a test substance (0.01 wt. %) was added. A mixture of UV-A/UV-B (3 J/cm^2, measured at 365 nm) was irradiated onto the resultant DNA mixture using a solar simulator. A 2.5-fold amount of ethanol and a 0.1-fold amount of 5M sodium acetate were added and the DNA was precipitated. The DNA pellet was dissolved in a TE buffer, and analyzed through agarose gel electrophoresis. Inhibition of DNA single strand breaks formation was measured.

The subject of experiment [3] is skin of colored guinea pigs. The experiment can be described thus: Inhibition of delayed darkening (UV-A/UV-B irradiation). In kind it is in vivo. The settings on record: 7 wt. % in ethanol; UV-A/UV-B 50 J/cm^2; 14 days after irradiation; color difference meter. How it is done:
Inhibition of delayed darkening
The hair of colored guinea pigs (8 week old, female) hair was removed, and an ethanol solution containing a test substance (7 wt. %) was applied to the skin. A mixture of UV- A/UV-B rays (50 J/cm^2, measured at 365 nm using a UV-radiometer UVR-305/365-D, Torex Co.) was irradiated onto the back of each guinea pig using a solar simulator. Fourteen days after irradiation, delayed darkening inhibition ratios were measured using a color difference meter (Model 1001P. Nippon Kogyo Co., Ltd.).

For `COCC(O)CN(C)c1ccc(OC)cc1` (stereo not drawn) [Compound (1), N-(2-hydroxy-3-methoxypropyl)-N-methyl-p-anisidine], in experiment [1], the inhibition at 0.01 wt% worked out at 51%. In addition, in experiment [2], the “Prevention of DNA damage” value is 69%. Also, the ΔΔL value in experiment [3] is recorded as 1.7.

For the compound `CCCCN(CC(O)COC)c1ccc(OC)cc1` (stereo not drawn) [Compound (2), N-n-butyl-N-(2-hydroxy-3-methoxypropyl)-p-anisidine], the inhibition at 0.01 wt% in experiment [1] amounted to 43%. Besides, the “Prevention of DNA damage” value in experiment [2] is listed as 50%. This compound also registered a ΔΔL value in experiment [3] of 1.1.

On to `CCCCCCCCN(CC(O)COC)c1ccc(OC)cc1` (stereo not drawn) [Compound (3), N-(2-hydroxy-3-methoxypropyl)-N-n-octyl-p-anisidine], for which the inhibition at 0.01 wt% in experiment [1] amounted to 60%. Moreover, in experiment [2], the “Prevention of DNA damage” value is listed as 71%. The same compound displayed a ΔΔL value in experiment [3] of 2.0.

As for `COCC(O)CN(CC(O)COC)c1ccc(C)cc1` (stereo not drawn) [Compound (4), N,N-bis(2-hydroxy-3-methoxypropyl)-p-toluidine], the inhibition at 0.01 wt% in experiment [1] was 57%. Also, the “Prevention of DNA damage” value in experiment [2] turned out to be 69%. The ΔΔL value in experiment [3] was found to be 1.8.

Take `CCCCN(CC(O)COC)c1ccc(C)cc1` (stereo not drawn) [Compound (5), N-n-butyl-N-(2-hydroxy-3-methoxypropyl)-p-toluidine]: the inhibition at 0.01 wt% in experiment [1] is 48%. In addition, the “Prevention of DNA damage” value in experiment [2] was 66%. In experiment [3], this compound returned a ΔΔL value of 1.5.

Take `CCCCN(CC(O)COC)c1ccccc1` (stereo not drawn) [Compound (6), N-n-butyl-N-(2-hydroxy-3-methoxypropyl)aniline]: in experiment [1], the inhibition at 0.01 wt% was 40%. In addition, the “Prevention of DNA damage” value in experiment [2] amounted to 47%. The ΔΔL value in experiment [3] is recorded as 1.1.

On to `CCCCN(CC(O)COC)c1ccc(C)c(C)c1` (stereo not drawn) [Compound (32), N-n-butyl-N-(2-hydroxy-3-methoxypropyl)-3,4-xylidine], for which the inhibition at 0.01 wt% in experiment [1] is 54%. For the same compound, in experiment [2], the “Prevention of DNA damage” value amounted to 61%. The compound further returned a ΔΔL value in experiment [3] of 1.3.

Turning to `Cc1ccc(N(C)CC(O)CO)cc1` (stereo not drawn) [Compound (33), N-(2,3-dihydroxypropyl)-N-methyl-p-toluidine], the inhibition at 0.01 wt% in experiment [1] was determined as 47%. Further, in experiment [2], the “Prevention of DNA damage” value worked out at 48%. Besides, in experiment [3], the ΔΔL value was found to be 1.1.

Turning to `CCCCN(CC(O)CO)c1ccc(C)c(C)c1` (stereo not drawn) [Compound (34), N-n-butyl-N-(2,3-dihydroxypropyl)-3,4-xylidine], the inhibition at 0.01 wt% in experiment [1] came to 52%. Also, the “Prevention of DNA damage” value in experiment [2] stood at 64%. The same compound yielded a ΔΔL value in experiment [3] of 1.3.

For `CCCCCCCCN(CC(O)CO)c1ccc(OC)cc1` (stereo not drawn) [Compound (35), N-(2,3-dihydroxypropyl)-N-octyl-p-anisidine], the inhibition at 0.01 wt% in experiment [1] amounted to 56%. The “Prevention of DNA damage” value in experiment [2] is on record as 79%. This compound came in with a ΔΔL value in experiment [3] of 1.9.
